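Each compound was tested at five concentrations against cells in 96-well plates for 48 hours. GI50 = concentration required for 50% inhibition of growth.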 Calls of active or inactive are those of the source. No stated cut-off is given here; in the data, active = GI50 up to about 1.1 µM and inactive = higher.
Legend:
Test in all cases: NCI-60 cell line screen, 48 h
MDA-N = tested on: MDA-N
A498 = tested on: A498
SK-OV-3 = tested on: SK-OV-3
HOP-62 = tested on: HOP-62
OVCAR-5 = tested on: OVCAR-5
NCI-H522 = tested on: NCI-H522
CCRF-CEM = tested on: CCRF-CEM
M14 = tested on: M14
NCI-H460 = tested on: NCI-H460
T47D = tested on: T47D
NCI-H23 = tested on: NCI-H23
BT-549 = tested on: BT-549
IGROV-1 = tested on: IGROV-1
HCT-116 = tested on: HCT-116
SNB-19 = tested on: SNB-19
SK-MEL-28 = tested on: SK-MEL-28
MDA-MB-435 = tested on: MDA-MB-435
SK-MEL-5 = tested on: SK-MEL-5
A549 = tested on: A549
DMS-273 = tested on: DMS-273

Structure (SMILES)	GI50 (MDA-N)	GI50 (A498)	GI50 (SK-OV-3)	GI50 (HOP-62)	GI50 (OVCAR-5)	GI50 (NCI-H522)	GI50 (CCRF-CEM)	GI50 (M14)	GI50 (NCI-H460)	GI50 (T47D)	GI50 (NCI-H23)	GI50 (BT-549)	GI50 (IGROV-1)	GI50 (HCT-116)	GI50 (SNB-19)	GI50 (SK-MEL-28)	GI50 (MDA-MB-435)	GI50 (SK-MEL-5)	GI50 (A549)	GI50 (DMS-273)
CCOC(=O)c1c(C)n(CCN2CCN(C)CC2)c2ccc(OC)cc12	19.6 µM (inactive)	22.5 µM (inactive)	72.6 µM (inactive)	32.3 µM (inactive)	61.4 µM (inactive)	28.6 µM (inactive)	24 µM (inactive)	16 µM (inactive)	48.9 µM (inactive)	34.4 µM (inactive)	> 100 µM (inactive)	45.4 µM (inactive)	31.2 µM (inactive)	38.4 µM (inactive)	90.2 µM (inactive)	16.5 µM (inactive)	19.9 µM (inactive)	16.5 µM (inactive)	> 100 µM (inactive)	–
C[C@]12CC[C@@H]3c4cc(OCC(F)(F)F)c(O)cc4CC[C@H]3[C@@H]1CC[C@@H]2O	0.287 µM (active)	7.66 µM (inactive)	1.69 µM (inactive)	11.6 µM (inactive)	18.7 µM (inactive)	0.558 µM (active)	1.51 µM (inactive)	1.52 µM (inactive)	1.44 µM (inactive)	5.41 µM (inactive)	4.75 µM (inactive)	18.4 µM (inactive)	6.89 µM (inactive)	1.9 µM (inactive)	2.75 µM (inactive)	11.8 µM (inactive)	0.284 µM (active)	3.38 µM (inactive)	5.41 µM (inactive)	–
O=C1Cc2c(-c3ccc(Cl)cc3)cc(-c3ccccc3)nc2-c2ccccc2N1	9.35 µM (inactive)	2.07 µM (inactive)	4.46 µM (inactive)	8.24 µM (inactive)	16.2 µM (inactive)	8.38 µM (inactive)	6.35 µM (inactive)	11.6 µM (inactive)	2.1 µM (inactive)	2.66 µM (inactive)	10.5 µM (inactive)	21.4 µM (inactive)	6.95 µM (inactive)	3.44 µM (inactive)	1.87 µM (inactive)	4.67 µM (inactive)	7.76 µM (inactive)	5.15 µM (inactive)	5.66 µM (inactive)	–
COC(=O)C12C34C=CC5(CCC6(C=CC1(CC3)O6)C52C(=O)OC)O4 (stereo not drawn)	–	93.3 µM (inactive)	> 100 µM (inactive)	> 100 µM (inactive)	> 100 µM (inactive)	> 100 µM (inactive)	> 100 µM (inactive)	–	> 100 µM (inactive)	–	> 100 µM (inactive)	–	> 100 µM (inactive)	> 100 µM (inactive)	> 100 µM (inactive)	> 100 µM (inactive)	–	–	> 100 µM (inactive)	> 100 µM (inactive)
CC(C)(C)OC(=O)NCCNC(=O)CN(CC(=O)O)C1CCCCC1N(CC(=O)O)CC(=O)O (stereo not drawn)	> 100 µM (inactive)	> 100 µM (inactive)	> 100 µM (inactive)	> 100 µM (inactive)	> 100 µM (inactive)	> 100 µM (inactive)	> 100 µM (inactive)	> 100 µM (inactive)	> 100 µM (inactive)	> 100 µM (inactive)	> 100 µM (inactive)	> 100 µM (inactive)	> 100 µM (inactive)	> 100 µM (inactive)	> 100 µM (inactive)	> 100 µM (inactive)	> 100 µM (inactive)	> 100 µM (inactive)	> 100 µM (inactive)	–
O=C(/C=C/c1ccc(OCc2ccccc2)cc1)NCc1ccc(C(=O)NCCc2ccccc2)cc1	> 100 µM (inactive)	> 100 µM (inactive)	> 100 µM (inactive)	89.1 µM (inactive)	> 100 µM (inactive)	> 100 µM (inactive)	11.4 µM (inactive)	> 100 µM (inactive)	> 100 µM (inactive)	> 100 µM (inactive)	> 100 µM (inactive)	> 100 µM (inactive)	> 100 µM (inactive)	> 100 µM (inactive)	> 100 µM (inactive)	> 100 µM (inactive)	> 100 µM (inactive)	> 100 µM (inactive)	> 100 µM (inactive)	–
CCCCCCCCCCCCCCCCOC(=O)c1cc(O)cc(C(=O)OCCCCCCCCCCCCCCCC)c1	–	> 100 µM (inactive)	> 100 µM (inactive)	–	> 100 µM (inactive)	> 100 µM (inactive)	> 100 µM (inactive)	> 100 µM (inactive)	> 100 µM (inactive)	–	> 100 µM (inactive)	–	> 100 µM (inactive)	> 100 µM (inactive)	> 100 µM (inactive)	> 100 µM (inactive)	–	> 100 µM (inactive)	> 100 µM (inactive)	> 100 µM (inactive)
CC[S+]([O-])c1c2cc(OC)ccc2nc2ccc(OC)cc12 (stereo not drawn)	4.71 µM (inactive)	17.3 µM (inactive)	24.1 µM (inactive)	21.5 µM (inactive)	17.8 µM (inactive)	1.83 µM (inactive)	3.79 µM (inactive)	10.2 µM (inactive)	29.5 µM (inactive)	2.62 µM (inactive)	6.05 µM (inactive)	17.5 µM (inactive)	4.94 µM (inactive)	3.19 µM (inactive)	20 µM (inactive)	7.91 µM (inactive)	8.85 µM (inactive)	16.4 µM (inactive)	22.6 µM (inactive)	–
COc1ccc2c(c1)CC[C@@H]1C2CC[C@]2(C)C(=O)NC(=O)CC12 (stereo partly drawn)	–	> 100 µM (inactive)	> 100 µM (inactive)	> 100 µM (inactive)	> 100 µM (inactive)	> 100 µM (inactive)	88.3 µM (inactive)	> 100 µM (inactive)	> 100 µM (inactive)	–	> 100 µM (inactive)	–	> 100 µM (inactive)	> 100 µM (inactive)	> 100 µM (inactive)	–	–	78.3 µM (inactive)	> 100 µM (inactive)	65.8 µM (inactive)
COC1C=COC2(C)Oc3c(C)c(O)c4c(c3C2=O)/C(=N/C2CCC(O)OC2C)C=C(NC(=O)/C(C)=C\C(=O)C2CC2C(O)C(C)C(O)C(C)C(OC(C)=O)C1C)C4=O (stereo not drawn)	1.88 µM (inactive)	3.05 µM (inactive)	7.96 µM (inactive)	3.04 µM (inactive)	2.88 µM (inactive)	0.946 µM (active)	0.474 µM (active)	1.97 µM (inactive)	3.26 µM (inactive)	2.69 µM (inactive)	1.79 µM (inactive)	2.44 µM (inactive)	2.4 µM (inactive)	1.79 µM (inactive)	3.47 µM (inactive)	2.05 µM (inactive)	1.79 µM (inactive)	1.95 µM (inactive)	3.48 µM (inactive)	–
COc1ccc(NC(=O)C2=C(SC)C(C#N)C(=O)N=C2N)cc1 (stereo not drawn)	> 100 µM (inactive)	> 100 µM (inactive)	> 100 µM (inactive)	> 100 µM (inactive)	> 100 µM (inactive)	15.1 µM (inactive)	25.7 µM (inactive)	> 100 µM (inactive)	> 100 µM (inactive)	49.4 µM (inactive)	> 100 µM (inactive)	> 100 µM (inactive)	20.3 µM (inactive)	> 100 µM (inactive)	> 100 µM (inactive)	> 100 µM (inactive)	> 100 µM (inactive)	> 100 µM (inactive)	> 100 µM (inactive)	–
CCOc1ccc(/N=C/c2c3ccccc3nc3ccccc23)cc1	–	68.1 µM (inactive)	> 100 µM (inactive)	39.4 µM (inactive)	> 10 µM (inactive)	49 µM (inactive)	3.59 µM (inactive)	55.2 µM (inactive)	48.9 µM (inactive)	–	54 µM (inactive)	–	> 100 µM (inactive)	–	73.8 µM (inactive)	> 100 µM (inactive)	–	38.9 µM (inactive)	74.6 µM (inactive)	32.4 µM (inactive)
CC1C(NNc2ccccc2)Oc2cc3c(cc2C1c1ccccc1O)OCO3 (stereo not drawn)	4.06 µM (inactive)	15.7 µM (inactive)	10.5 µM (inactive)	3.1 µM (inactive)	4.61 µM (inactive)	0.575 µM (active)	1.4 µM (inactive)	1.93 µM (inactive)	2.81 µM (inactive)	2.77 µM (inactive)	12.8 µM (inactive)	14.2 µM (inactive)	1.7 µM (inactive)	4.69 µM (inactive)	14.3 µM (inactive)	12.3 µM (inactive)	0.946 µM (active)	11.6 µM (inactive)	2.93 µM (inactive)	–
CC[C@H](C)[C@H]1NC(=O)[C@@H](NC(=O)[C@@H](CC(C)C)N(C)CC2CCCN2C(=O)C(C)=O)[C@@H](C)OC(=O)[C@H](Cc2ccc(OC)cc2)N(C)C(=O)C2CCCN2C(=O)[C@H](CC(C)C)NC(=O)[C@@H](C)C(=O)[C@H](C(C)C)OC(=O)C[C@@H]1O (stereo partly drawn)	0.00508 µM (active)	0.00471 µM (active)	0.00376 µM (active)	0.00361 µM (active)	0.00393 µM (active)	0.00564 µM (active)	< 0.0025 µM (active)	0.00374 µM (active)	0.00381 µM (active)	0.00344 µM (active)	0.00719 µM (active)	0.0047 µM (active)	< 0.0025 µM (active)	0.00308 µM (active)	0.00356 µM (active)	0.0049 µM (active)	0.00371 µM (active)	0.00311 µM (active)	0.00356 µM (active)	–
C[C@]12CCC(=O)C=C1CC[C@@H]1[C@@H]2[C@@H](O)C[C@@]2(C)[C@H]1CC[C@]2(O)C(=O)CO [HYDROCORTISONE]	> 100 µM (inactive)	> 100 µM (inactive)	> 100 µM (inactive)	> 100 µM (inactive)	> 100 µM (inactive)	> 100 µM (inactive)	18.7 µM (inactive)	> 100 µM (inactive)	> 100 µM (inactive)	> 100 µM (inactive)	> 100 µM (inactive)	> 100 µM (inactive)	> 100 µM (inactive)	> 100 µM (inactive)	> 100 µM (inactive)	> 100 µM (inactive)	> 100 µM (inactive)	> 100 µM (inactive)	> 100 µM (inactive)	–

Source: ChEMBL document CHEMBL1201862, “PubChem BioAssay data set” (2004)
